Here are results for eight molecules from patent US9315503B2, “Kinase inhibitors” (CHIESI FARMACEUTICI S.p.A., priority 2011, dated 2016).

Each structure is given as a SMILES string. pIC50: −log10 of the molar value. Where a name gives a salt, the structure may show the parent alone. Some results are limits rather than exact numbers.

The target of one assay is T1, p38alpha (Homo sapiens, UniProt Q16539).
T1 construct: purchased Invitrogen PV3304
As to the kind of experiment: P38Alpha enzyme inhibition assay (Alphascreen kinase activity assay). In kind it is biochemical. The settings on record: 100 pM p38alpha, 250 μM ATP, 2 hours pre-incubation at 25° C., read-out: p38α inhibition (IC50 values). Summed up:
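AlphaScreen read-out: after an EDTA stop, an anti-phospho-ATF2 antibody with Protein A acceptor and donor beads measured substrate phosphorylation. Compounds sat 2 h at 25°C with 100 pM p38α and 0.3 µg/ml ATF-2 fusion protein (pH 7.5, 1% DMSO) before 250 µM ATP was added for 1 h. IC50 from dose-response.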
On the technique in general: In Alpha technology, singlet oxygen from a donor bead excites a nearby acceptor bead.

Assay [1] relates to LPS-stimulated TNFα release from PBMCs. As to the kind of experiment: LPS-stimulated PBMC TNFα release assay. The assay is classed as cell-based. The settings on record: inhibition of TNFα release, human PBMCs, LPS 10 ng/ml, 18 h, ELISA, read-out: p38α inhibition (IC50 values). Summed up: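 TNFα in supernatants measured by ELISA after 18 h LPS (10 ng/ml) challenge of human PBMCs given 1 h compound pretreatment at 37 °C in medium with 1% FBS. Percent inhibition versus control release fitted to dose-response curves for IC50; at least three independent runs.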

T1 sequence (Q16539 whole entry): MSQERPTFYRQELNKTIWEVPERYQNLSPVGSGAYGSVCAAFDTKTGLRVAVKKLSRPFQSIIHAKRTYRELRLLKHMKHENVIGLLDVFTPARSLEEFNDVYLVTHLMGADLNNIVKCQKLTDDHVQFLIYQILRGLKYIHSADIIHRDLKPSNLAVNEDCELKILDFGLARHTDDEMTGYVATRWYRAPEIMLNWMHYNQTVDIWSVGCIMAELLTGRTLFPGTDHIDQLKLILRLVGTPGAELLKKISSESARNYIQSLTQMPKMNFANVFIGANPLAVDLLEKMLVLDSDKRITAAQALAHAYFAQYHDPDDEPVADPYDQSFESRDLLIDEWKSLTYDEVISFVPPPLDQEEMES

Take `C[C@H]1CCCCN1c1nnc2ccc(O[C@@H]3CC[C@H](NC(=O)Nc4cc(C(C)(C)C)on4)c4ccccc43)cn12` [Example 111, 1-(5-tert-Butyl-isoxazol-3-yl)-3-{(1S,4R)-4-[3-((S)-2-methyl-piperidin-1-yl)-[1,2,4]triazolo[4,3-a]pyridin-6-yloxy]-1,2,3,4-tetrahydro-naphthalen-1-yl}-urea]: the pIC50 (on p38alpha; in assay [1]) was above 8.00 each time.

`CC(C)(C)c1cc(NC(=O)N[C@H]2CC[C@@H](Oc3ccc4nnc(N5CCCCC5)n4c3)c3ccccc32)n(-c2cnn(CCN3CCOCC3)c2)n1` [Example 112, 1-[3-tert-Butyl-1′-(2-morpholin-4-yl-ethyl)-1′H-[1,4′]bipyrazolyl-5-yl]-3-[(1S,4R)-4-(3-piperidin-1-yl-[1,2,4]triazolo[4,3-a]pyridin-6-yloxy)-1,2,3,4-tetrahydro-naphthalen-1-yl]-urea formate salt]: the pIC50 (on p38alpha; in assay [1]) was above 8.00 each time.

In the case of `CN(C)CCCn1cc(-n2nc(C(C)(C)C)cc2NC(=O)N[C@H]2CC[C@@H](Oc3ccc4nnc(N5CCCCC5)n4c3)c3ccccc32)cn1` [Example 113, 1-[3-tert-Butyl-1′-(3-dimethylamino-propyl)-1′H-[1,4′]bipyrazolyl-5-yl]-3-[(1S,4R)-4-(3-piperidin-1-yl-[1,2,4]triazolo[4,3-a]pyridin-6-yloxy)-1,2,3,4-tetrahydro-naphthalen-1-yl]-urea formate salt], the negative logarithm of the IC50 (pIC50) (at p38alpha; in assay [1]) was above 8.00 throughout.

As for `CC(C)(C)c1cc(NC(=O)N[C@H]2CC[C@@H](Oc3ccc4nnc(N5CCCCC5)n4c3)c3ccccc32)n(-c2cnn(CCCN3CCOCC3)c2)n1` [Example 114, 1-[3-tert-Butyl-1′-(3-morpholin-4-yl-propyl)-1′H-[1,4′]bipyrazolyl-5-yl]-3-[(1S,4R)-4-(3-piperidin-1-yl-[1,2,4]triazolo[4,3-a]pyridin-6-yloxy)-1,2,3,4-tetrahydro-naphthalen-1-yl]-urea formate salt], the pIC50 (at p38alpha; in assay [1]) was above 8.00 in each case.

For the molecule `C[C@@H]1CCC[C@H](C)N1c1nnc2ccc(O[C@@H]3CC[C@H](NC(=O)Nc4cc(F)cc(N5CCOCC5)c4)c4ccccc43)cn12` [Example 115, 1-{(1S,4R)-4-[3-((2S,6R)-2,6-Dimethyl-piperidin-1-yl)-[1,2,4]triazolo[4,3-a]pyridin-6-yloxy]-1,2,3,4-tetrahydro-naphthalen-1-yl}-3-(3-fluoro-5-morpholin-4-yl-phenyl)-urea], the pIC50 (on p38alpha; in assay [1]) was above 8.00 each time.

With `C[C@H]1CCCCN1c1nnc2ccc(O[C@@H]3CC[C@H](NC(=O)Nc4cc(C(C)(C)C)nn4CCN4CCOCC4)c4ccccc43)cn12` [Example 116, 1-[5-tert-Butyl-2-(2-morpholin-4-yl-ethyl)-2H-pyrazol-3-yl]-3-{(1S,4R)-4-[3-((S)-2-methyl-piperidin-1-yl)-[1,2,4]triazolo[4,3-a]pyridin-6-yloxy]-1,2,3,4-tetrahydro-naphthalen-1-yl}-urea], the pIC50 (on p38alpha; in assay [1]) was above 8.00 throughout.

Turning to `C[C@@H]1CCC[C@H](C)N1c1nnc2ccc(O[C@@H]3CC[C@H](NC(=O)Nc4cc(C(C)(C)C)nn4CCO)c4ccccc43)cn12` [Example 118, 1-[5-tert-Butyl-2-(2-hydroxy-ethyl)-2H-pyrazol-3-yl]-3-{(1S,4R)-4-[3-((2S,6R)-2,6-dimethyl-piperidin-1-yl)-[1,2,4]triazolo[4,3-a]pyridin-6-yloxy]-1,2,3,4-tetrahydro-naphthalen-1-yl}-urea], the pIC50 (at p38alpha; in assay [1]) was above 8.00 in each case.

Turning to `CN(C)CCn1cnc(-n2nc(C(C)(C)C)cc2NC(=O)N[C@H]2CC[C@@H](Oc3ccc4nnc(N5CCCCC5)n4c3)c3ccccc32)c1` [Example 119, 1-{5-tert-Butyl-2-[1-(2-dimethylamino-ethyl)-1H-imidazol-4-yl]-2H-pyrazol-3-yl}-3-[(1S,4R)-4-(3-piperidin-1-yl-[1,2,4]triazolo[4,3-a]pyridin-6-yloxy)-1,2,3,4-tetrahydro-naphthalen-1-yl]-urea], the pIC50 at p38alpha is above 8.00; in assay [1], 7.00 to 8.00.

The pIC50 is the negative decadic logarithm of the IC50, by convention in mol/L.
